In patent publication US8663646B2, “P53 peptide vaccine” (priority 2007, dated 2014):
Where two headings read alike, the source gives them in different places. Where no end group is shown, it is not given here.

What was measured:
[1] = target: T1, 20S immuno-proteasomes from human B-LCL cell line (JY) (Homo sapiens, UniProt P28062+P28065+P40306); test: In vitro proteasome mediated digestion of 30-mers, mass spectrometry, immunoproteasome JY; assay type: biochemical; settings: 30 residue long precursor peptides
T1 construct: purified from a mouse B-cell line (RMA) and a human B-LCL cell line (JY); endogenous in cells; host or cells: B-LCL JY cells; 20S proteasome purified from them
Experimental: (§1) In the context of the invention, “being inefficiently processed by a proteasome” preferably means that within the first hour of digestion by a proteasome less than 1% of total digested peptide is found. The processing by a proteasome is preferably assessed by incubating a purified proteasome, more preferably a human proteasome with a peptide comprising the potential CTL epitope (30 amino acid length approximately) in a proteasome digestion buffer during at least one hour at 37° C. The reaction is subsequently stopped by adding trifluoroacetic acid. Analysis of the digested peptides is performed with electrospray ionization mass spectrometry (see example 1). Even more preferably, the human proteasome is an immunoproteasome from B-LCL JY cells (Kessler J H et al. 2001).
(§2) 20S immuno-proteasomes were purified from a mouse B-cell line (RMA) and a human B-LCL cell line (JY) and 20S household proteasomes were purified from human tumor cell line (HeLa) as described (Kessler J H et al 2001). To assess kinetics, digestions were performed with different incubation periods as indicated. Briefly, peptides containing the (potential) CTL epitopes (30 mers, 20 μg) were incubated with 1 μg of purified proteasome at 37° C. for 1 h, 4 h and 24 h in 300 μl proteasome digestion buffer, trifluoroacetic acid (30 μl) was added to stop the digestion and samples were stored at −20° C. before mass spectrometric analysis. Electrospray ionization mass spectrometry was performed on a hybrid quadrupole time-of-flight mass spectromter, a Q-TOF (Micromass), equipped with an on-line nanoelectrospray interface with an approximate flow rate of […] as described (Kessler J H et al 2001). The peaks in the mass spectrum were searched in the digested precursor peptide using the Biolynx/proteins software (Micromass) supplied with the mass spectrometer. The intensity of the peaks in the mass spectra was used to establish the relative amounts of peptides generated after proteasome digestion. The relative amounts of the peptides are given as a percentage of the total amount of peptide digested by the proteasome at the indicated incubation time. Major cleavage sites are defined as more than >1% of total digested peptide within the first hour.

[2] = target: T2, 20S immuno-proteasomes from mouse B-cell line (RMA) (Mus musculus, UniProt O35955+P28063+P28076); test: In vitro proteasome mediated digestion of 30-mers, mass spectrometry, immunoproteasome RMA; assay type: biochemical; settings: 30 residue long precursor peptides
T2 construct: 20S immuno-proteasomes were purified from a mouse B-cell line (RMA); endogenous in cells; host or cells: RMA cells; 20S proteasome purified from them
Experimental: as §1, §2

[3] = target: T3, 20S household proteasomes from human tumor cell line (HeLa) (Homo sapiens, UniProt P28072+P28074+Q99436); test: In vitro proteasome mediated digestion of 30-mers, mass spectrometry, household proteasome HeLa; assay type: biochemical; settings: 30 residue long precursor peptides
T3 construct: 20S household proteasomes were purified from human tumor cell line (HeLa); endogenous in cells; host or cells: HeLa cells; 20S proteasome purified from them
Experimental: as §1, §2

HLA-A*0301 [4] = target: T4, HLA-A*0301 (Homo sapiens, UniProt P04439); test: Competition based cellular binding assay, HLA-A*0301 (B-cell line EKR); settings: for HLA binding Affinity (Table 5): HLA type A3
T4 construct: B-cell lines used are: CAA (A*0101), EKR (A*0301), BVR (A*1101), VIJF (A*2401); endogenous in cells; host or cells: B-cell line EKR

HLA-A*0301 [5] = target: T4, HLA-A*0301; test: Stability of peptide-HLA complex, binding at 4° C. and 20° C., HLA-A*0301; settings: for Peptide Binding Stability: HLA-A*0301, IC50 at 20° C. vs 4° C.; for HLA binding Stability (Table 5): HLA type A3
Experimental: (§3) Stability of other peptide-HLA complexes was preferably determined as follows. […] Peptides of >50% of the initial complexes was lost within 2 hours were considered unstable. […] The rest was designated as unstable peptide binding.
(§4) Peptides 8-11 residues in length were selected based on typical anchor residues for HLA-A*0101, A*0301, A*1101 and HLA-A*2401 (Rammensee H G et al). The capacity of peptides to bind was tested in a competition based cellular binding assay as previously described (van der Burg S H et al 1995). FL-labeled reference peptides were synthesized as Cys-derivative (van der Burg S H et al 1995). Fluorescence labeled reference peptides used were: YLEPAC(FL)AK (SEQ ID NO: 87) (HLA-A*0101) and KVFPC(FL)ALINK (SEQ ID NO: 88) (HLA-A*1101) (Sette A et al), KVFPC(FL)ALINK (SEQ ID NO: 89) (HLAA*0301) (van der Burg S H et al 1995) and RYLKC(FL)QQLL (SEQ ID NO: 90) (A*2401) (Dai L C et al). B-cell lines used are: CAA (A*0101), EKR (A*0301), BVR (A*1101), VIJF (A*2401). The relative binding capacity of the peptides is expressed as the peptide concentration to inhibit 50% (1050) of the binding of the reference peptide. […] Peptide stabilization for HLA-A*0201 was performed as previously described (van der Burg S H et al, 1996). Peptides of >50% of the initial complexes was lost within 2 hours were considered unstable. Stability of other peptide-HLA complexes was determined as follows. Peptide binding was performed at 4° C. and 20° C. and 1050 were determined. […] The rest was designated as unstable peptide binding.

HLA-A*1101 [6] = target: T5, HLA-A*1101 (Homo sapiens, UniProt P04439, A114D/D185E/E176A/F33Y/L180Q/S129P/T187R); test: Stability of peptide-HLA complex, binding at 4° C. and 20° C., HLA-A*1101; settings: for HLA binding Stability (Table 5): HLA type A11; for Peptide Binding Stability: HLA-A*1101, IC50 at 20° C. vs 4° C.
T5 construct: B-cell lines used are: CAA (A*0101), EKR (A*0301), BVR (A*1101), VIJF (A*2401); endogenous in cells; host or cells: B-cell line BVR
Experimental: as §3, §4

HLA-A*1101 [7] = target: T5, HLA-A*1101; test: Competition based cellular binding assay, HLA-A*1101 (B-cell line BVR); settings: for HLA binding Affinity (Table 5): HLA type A11
[8] = HLA-A*1101, IC50 category, read-out: Peptide Binding Affinity

Compound | Proteasomal Cleavage of C-terminus, IP (JY) [1] | Proteasomal Cleavage of C-terminus, IP (RMA) [2] | Proteasomal Cleavage of C-terminus, HH (HeLa) [3] | Peptide Binding Affinity (HLA-A*0301 [4]; HLA-A*0301, IC50 category) | Peptide Binding Stability (HLA-A*0301 [5]) | HLA binding Affinity (Table 5) (HLA-A*0301 [4]) | HLA binding Stability (Table 5) (HLA-A*1101 [6]) | Peptide Binding Stability (HLA-A*1101 [6]) | HLA binding Stability (Table 5) (HLA-A*0301 [5]) | HLA binding Affinity (Table 5) (HLA-A*1101 [7]) | IC50 (HLA-A*1101 [7]; [8]) [µM] | IC50 (HLA-A*0301 [4]; HLA-A*0301, IC50 category, read-out: Peptide Binding Affinity) [µM] | IC50 (HLA-A*1101 [7]) [µM] | Peptide Binding Affinity (HLA-A*1101 [7]; HLA-A*1101, IC50 category)
CC(C)C[C@H](NC(=O)[C@@H](NC(=O)[C@H](CC(N)=O)NC(=O)[C@H](CC(N)=O)NC(=O)[C@H](CCC(=O)O)NC(=O)[C@@H]1CCCN1C(=O)[C@H](CC(C)C)NC(=O)[C@H](CC(C)C)NC(=O)[C@@H](N)CCCCN)C(C)C)C(=O)O [p53 24-32] | + (Major cleavage sites are defined as more than >1% of total digested peptide within the first hour) | + (Major cleavage sites are defined as more than >1% of total digested peptide within the first hour) | + (Major cleavage sites are defined as more than >1% of total digested peptide within the first hour) |  |  |  |  |  |  |  |  |  |  | 
CSCC[C@H](NC(=O)[C@H](CCCCN)NC(=O)[C@H](CC(N)=O)NC(=O)[C@H](CC(C)C)NC(=O)[C@H](C)N)C(=O)N[C@@H](Cc1ccccc1)C(=O)N[C@@H](CS)C(=O)N[C@@H](CCC(N)=O)C(=O)N[C@@H](CC(C)C)C(=O)N[C@@H](C)C(=O)N[C@@H](CCCCN)C(=O)O [p53 129-139] | + (Major cleavage sites are defined as more than >1% of total digested peptide within the first hour) | + (Major cleavage sites are defined as more than >1% of total digested peptide within the first hour) | + (Major cleavage sites are defined as more than >1% of total digested peptide within the first hour) | high | + (Stable peptides displayed IC50 at 20 °C that deviated <2 times of the IC50 at 4° C.) |  |  |  |  |  |  |  |  | 
CC[C@H](C)[C@H](NC(=O)[C@@H](NC(=O)[C@@H](NC(=O)[C@H](CS)NC(=O)[C@H](CC(=O)O)NC(=O)[C@H](CO)NC(=O)CN)[C@@H](C)O)[C@@H](C)O)C(=O)N[C@@H](Cc1c[nH]cn1)C(=O)N[C@@H](Cc1ccc(O)cc1)C(=O)O [p53 226-234] |  | + (Major cleavage sites are defined as more than >1% of total digested peptide within the first hour) | + (Major cleavage sites are defined as more than >1% of total digested peptide within the first hour) |  |  |  |  |  |  |  |  |  |  | 
CC(C)C[C@H](NC(=O)[C@H](Cc1c[nH]cn1)NC(=O)[C@H](CO)NC(=O)[C@H](CO)NC(=O)[C@H](Cc1c[nH]cn1)NC(=O)[C@H](C)NC(=O)[C@@H](N)CCCNC(=N)N)C(=O)N[C@@H](CCCCN)C(=O)O [p53 363-370] |  |  |  | high | + (Stable peptides displayed IC50 at 20 °C that deviated <2 times of the IC50 at 4° C.) | high | +/− (Peptides that displayed IC50 at 20 °C of more than twice the IC50 at 4 °C but IC50 < 15 μM were considered to bind with intermediate stability.) | +/− (Peptides that displayed IC50 at 20 °C of more than twice the IC50 at 4 °C but IC50 < 15 μM were considered to bind with intermediate stability.) | + (Stable peptides displayed IC50 at 20 °C that deviated <2 times of the IC50 at 4° C.) | int | 5 to 15 |  |  | 
GFLHSGTAK [p53 112-120] | + (Major cleavage sites are defined as more than >1% of total digested peptide within the first hour) | + (Major cleavage sites are defined as more than >1% of total digested peptide within the first hour) |  |  | − (The rest was designated as unstable peptide binding.) | int | − (The rest was designated as unstable peptide binding.) | − (The rest was designated as unstable peptide binding.) | − (The rest was designated as unstable peptide binding.) | int | 5 to 15 | 5 to 15 |  | 
GQSTSRHKK [p53 374-382] |  |  |  |  |  |  | +/− (Peptides that displayed IC50 at 20 °C of more than twice the IC50 at 4 °C but IC50 < 15 μM were considered to bind with intermediate stability.) | +/− (Peptides that displayed IC50 at 20 °C of more than twice the IC50 at 4 °C but IC50 < 15 μM were considered to bind with intermediate stability.) |  | int |  |  | 5 to 15 | 
LGFLHSGTAK [p53 111-120] | + (Major cleavage sites are defined as more than >1% of total digested peptide within the first hour) | + (Major cleavage sites are defined as more than >1% of total digested peptide within the first hour) |  | high | +/− (Peptides that displayed IC50 at 20 °C of more than twice the IC50 at 4 °C but IC50 < 15 μM were considered to bind with intermediate stability.) | high |  | + (Stable peptides displayed IC50 at 20 °C that deviated <2 times of the IC50 at 4° C.) | +/− (Peptides that displayed IC50 at 20 °C of more than twice the IC50 at 4 °C but IC50 < 15 μM were considered to bind with intermediate stability.) |  |  |  |  | high
RTEEENLRK [p53 283-291] |  |  |  |  |  |  | +/− (Peptides that displayed IC50 at 20 °C of more than twice the IC50 at 4 °C but IC50 < 15 μM were considered to bind with intermediate stability.) | +/− (Peptides that displayed IC50 at 20 °C of more than twice the IC50 at 4 °C but IC50 < 15 μM were considered to bind with intermediate stability.) |  | int | 5 to 15 |  |  | 
